Results reported in publication PMC6211257, “Synthesis and cytotoxic activities of novel copper and silver complexes of 1,3-diaryltriazene-substituted sulfonamides” (Journal of Enzyme Inhibition and Medicinal Chemistry, 2018).
Where “and” joins values, the source holds several entries; their conditions need not be identical. Equal entries are not always repeated. Where two headings read alike, the source gives them in different places.

What was measured:
[1] = test system: prostate cancer (DU-145) cells; assay: MTT cytotoxicity assay, DU-145; type: cell-based, human; conditions: for IC50: MTT, 48 h
Excerpt: (§1) The cells studied were obtained from the American Type Culture Collection (ATCC, Manassas, VA), and included human colorectal adenocarcinoma (DLD-1), cervix carcinoma (HeLa), breast adenocarcinoma (MDA-MB-231), colon adenocarcinoma (HT-29), endometrial adenocarcinoma (ECC-1), prostate cancer (DU-145 and PC-3), normal embryonic kidney (HEK-293), normal prostate epithelium (PNT-1A), and normal retinal pigment epithelium (ARPE-19) cells. As recommended by ATCC, cells were subjected to propagation using DMEM-F12 and RPMI-1640 media, with supplements 10% fetal bovine serum, L-glutamine (2 mM), penicillin (100 U/mL) and streptomycin ([…]) in a humidified atmosphere (5% CO2) at 37 °C. When the cultures reached 70–80% confluence, the cells were harvested using 0.25% trypsin (Sigma).
(§2) Cytotoxic activities were based on the reduction of (3–(4,5-dimethylthiazol-2-yl)-2,5-diphenyltetrazolium bromide) (MTT) by mitochondrial dehydrogenase of viable cells to give a blue formazan product which can be measured spectrophotometrically by UV–Vis measurements. MTT colorimetric assays were performed using 96 well plates. The cells were seeded in a 96 well plate at concentration 5.0 × 10^4 cells/well and incubated at 37 °C for 24 h. After treatment with various concentrations of the test compound (1, 5, 10, 25, 50, 100 and 200 μM), the cells were incubated for an additional 48 h at 37 °C. After incubation, the medium was removed, and the cells in each well were incubated with 100 μL MTT solution (5 mg/mL) for 4 h at 37 °C. MTT solutions were then discarded, and 100 μL DMSO were added to dissolve insoluble formazan crystals. Optical densities were measured at 570 nm (Varioskan Flash Multimode Reader, Thermo, Waltham, MA). Data were obtained from triplicate wells. Cytotoxic effects were determined in reference to negative controls (vehicle treated cells). Cytotoxicity was expressed as the mean percentage increase relative to the unexposed control (mean ± SD). All statistical analyses were performed using SPSS package program for Windows (Version 20, Chicago, IL). Control values were set to 0% cytotoxicity. Cytotoxicity data, where appropriate, were fitted to sigmoidal curves and a four-parameter logistic model was used to calculate the IC50 values, the concentration of material causing 50% inhibition, compared to the untreated controls. 5-Fluorouracil (5-FU) was also used as a control agent[21]^,[22].

[2] = test system: human colorectal adenocarcinoma (DLD-1) cells; assay: MTT cytotoxicity assay, DLD-1; type: cell-based; conditions: 48 h, means of three independent experiments
Excerpt: as §1, §2

[3] = test system: colon adenocarcinoma (HT-29) cells; assay: MTT cytotoxicity assay, HT-29; type: cell-based, human; conditions: 48 h, means of three independent experiments
Excerpt: as §1, §2

[4] = test system: breast adenocarcinoma (MDA-MB-231) cells; assay: MTT cytotoxicity assay, MDA-MB-231; type: cell-based, human; conditions: 48 h, means of three independent experiments
Excerpt: as §1, §2

[5] = test system: normal embryonic kidney (HEK-293) cells; assay: MTT cytotoxicity assay, HEK-293; type: cell-based, human; conditions: 48 h, means of three independent experiments
Excerpt: as §1, §2

[6] = test system: normal retinal pigment epithelium (ARPE-19) cells; assay: MTT cytotoxicity assay, ARPE-19; type: cell-based, human; conditions: 48 h, means of three independent experiments
Excerpt: as §1, §2

[7] = test system: prostate cancer (PC-3) cells; assay: MTT cytotoxicity assay, PC-3; type: cell-based, human; conditions: 48 h, means of three independent experiments
Excerpt: as §1, §2

[8] = test system: cervix carcinoma (HeLa) cells; assay: MTT cytotoxicity assay, HeLa; type: cell-based, human; conditions: for IC50: 48 h, cancer cell, MTT, means of three independent experiments
Excerpt: as §1, §2

[9] = test system: normal prostate epithelium (PNT-1A) cells; assay: MTT cytotoxicity assay, PNT-1A; type: cell-based, human; conditions: 48 h
Excerpt: as §1, §2

[10] = test system: endometrial adenocarcinoma (ECC-1) cells; assay: MTT cytotoxicity assay, ECC-1; type: cell-based, human; conditions: 48 h, means of three independent experiments
Excerpt: as §1, §2

[11] = Homo sapiens, DU-145, cancer cell, means of three independent experiments, read-out: IC50 DU-145
[12] = Homo sapiens, DLD-1, cancer cell
[13] = Homo sapiens, HT-29, cancer cell
[14] = Homo sapiens, MDA-MB-231, cancer cell
[15] = Homo sapiens, HEK293, normal cell
[16] = Homo sapiens, ARPE-19, normal cell
[17] = Homo sapiens, PC-3, cancer cell
[18] = Homo sapiens, PNT1A, normal cell, means of three independent experiments, read-out: IC50 PNT-1A
[19] = Homo sapiens, ECC-1, cancer cell
[20] = cancer cell, means of three independent experiments, read-out: IC50 DU-145
[21] = normal cell, means of three independent experiments, read-out: IC50 PNT-1A

SMILES | IC50 [1, 11] [µM] | IC50 [2, 12] [µM] | IC50 [3, 13] [µM] | IC50 [4, 14] [µM] | IC50 [5, 15] [µM] | IC50 [6, 16] [µM] | IC50 [7, 17] [µM] | IC50 ([8]; Homo sapiens, HeLa) [µM] | IC50 [8] | IC50 [9, 18] [µM] | IC50 [10, 19] [µM] | IC50 [1, 20] [µM] | IC50 ([2]; cancer cell) [µM] | IC50 ([3]; cancer cell) [µM] | IC50 ([4]; cancer cell) [µM] | IC50 ([5]; normal cell) [µM] | IC50 ([6]; normal cell) [µM] | IC50 [9, 21] [µM] | IC50 ([10]; cancer cell) [µM] | IC50 ([7]; cancer cell) [µM] | also measured
O=c1[nH]cc(F)c(=O)[nH]1 [Compound 5-FU, 5-Fluorouracil, reference compound] | 37.3 ± 5.8 | 50.2 ± 21 | 24.2 ± 2.4 | 22.4 ± 2.5 | 65.3 ± 8.6 | 75.3 ± 7.5 | 45.5 ± 4.5 | 19.2 | 19.2 ± 1.2 µM | 142 ± 18.6 | 30.6 ± 3.5 | – | – | – | – | – | – | – | – | – | –
NS(=O)(=O)c1cccc(N/N=N/c2ccc(F)cc2)c1 [Compound L1, 3–(3-(4-fluorophenyl)triaz-1-en-1-yl) benzenesulfonamide] | 29 ± 2.9 | 140 ± 11 | 79.4 ± 15.4 | 104 ± 28.2 | 132 ± 16.4 | 279 ± 33.8 | 168 ± 18.5 | 179 ± 16 | – | 195 ± 23.5 | 239 ± 27.5 | – | – | – | – | – | – | – | – | – | IC50 ([1]; Homo sapiens, DU-145, unit given as M, read-out: IC50 prostate cancer (DU-145)): 29 µM; selectivity between prostate cancer cell line (DU-145) and normal prostate cells (PNT1-A) ([1]; from IC50 values DU-145 vs PNT1-A): high selectivity; IC50 ([9]; Homo sapiens, PNT1A, unit given as M, read-out: IC50 normal prostate cells (PNT1-A)): 195 µM
CC(=O)[O][Ag][N](N=Nc1ccc(F)cc1)c1cccc(S(N)(=O)=O)c1 [Compound L1-Ag] | – | – | – | – | – | – | – | – | > 300 µM | – | – | 137 ± 16.5 | 279 ± 12.9 | 186 ± 16.5 | 96.8 ± 9.6 | > 300 | > 300 | 210 ± 20.9 | 207 ± 25.6 | – | –
CC(=O)[O][Cu-]1([O]C(C)=O)[N](c2cccc(S(N)(=O)=O)c2)N=[N+]1c1ccc(F)cc1 [Compound L1-Cu] | – | – | – | – | – | – | – | – | 5.02 µM and 5 µM | – | – | 105 ± 13.5 | 47.1 ± 4.7 | 199 ± 24.3 | 117 ± 14.2 | 68.8 ± 8.7 | 119 ± 13.5 | 76.5 ± 8.5 | 26.2 ± 2.6 | 102 ± 10.2 | –
COc1ccc(/N=N/Nc2cccc(S(N)(=O)=O)c2)cc1 [Compound L2, 3–(3-(4-methoxyphenyl)triaz-1-en-1-yl)] | 154 ± 25.6 | 223 ± 8.3 | 265 ± 30 | 144 ± 2.4 | 146 ± 13.4 | > 300 | 171 ± 20.5 | 768 ± 6.5 | – | > 300 | > 300 | – | – | – | – | – | – | – | – | – | –
COc1ccc(N=N[N]([Ag][O]C(C)=O)c2cccc(S(N)(=O)=O)c2)cc1 [Compound L2-Ag] | – | – | – | – | – | – | – | – | 2.8 ± 0.1 µM | – | – | 18.6 | 31.6 | 24.9 ± 2.5 | 30.3 ± 3 | 17.8 ± 1.7 | 22 ± 10.2 | 17.5 ± 17.5 | 29.1 | 28.2 | fold increased potency than the reference drug 5-FU ([8]; HeLa cells, ratio of IC50 values): 6.84 fold
COc1ccc([N+]2=N[N](c3cccc(S(N)(=O)=O)c3)[Cu-]2([O]C(C)=O)[O]C(C)=O)cc1 [Compound L2-Cu] | – | – | – | – | – | – | – | – | 2.08 µM and 2.1 µM | – | – | 116 ± 14.6 | 42.7 ± 3.3 | 94.9 ± 9.4 | 50 ± 2.4 | 159 ± 19.4 | 132 ± 15.6 | 95.1 ± 11.1 | 39.5 ± 2.5 | 65.3 ± 8.5 | –
NS(=O)(=O)c1cccc(N/N=N/c2ccc(C(=O)O)cc2)c1 [Compound L3, 4–(3–(3-sulfamoylphenyl)triaz-2-en-1-yl) benzoic acide] | 186 ± 20.6 | > 300 | > 300 | > 300 | > 300 | > 300 | > 300 | > 300 | – | > 300 | 197 ± 23.5 | – | – | – | – | – | – | – | – | – | –
CC(=O)[O][Ag][N](N=Nc1ccc(C(=O)O)cc1)c1cccc(S(N)(=O)=O)c1 [Compound L3-Ag] | – | – | – | – | – | – | – | – | 3.4 ± 0.2 µM | – | – | 4.8 ± 0.4 | 3.3 ± 0.3 | 10.1 ± 3.1 | 9.8 ± 0.9 | 9.9 ± 0.9 | 9.5 ± 0.9 | 9.2 ± 0.9 | 16.2 ± 1.6 | 5.1 ± 0.5 | –
CC(=O)[O][Cu-]1([O]C(C)=O)[N](c2cccc(S(N)(=O)=O)c2)N=[N+]1c1ccc(C(=O)O)cc1 [Compound L3-Cu] | – | – | – | – | – | – | – | – | 63.9 ± 4.3 µM | – | – | 58.3 ± 6.4 | 65.2 ± 2.5 | 205 ± 20.3 | 48.3 ± 2.5 | 135 ± 15.6 | > 300 | 120 ± 13.5 | 362 ± 38.1 | 196 ± 22.6 | –
COc1ccc(/N=N/Nc2cccc(S(N)(=O)=O)c2)cc1OC [Compound L4, 3–(3-(3,4-dimethoxyphenyl)triaz-1-en-1-yl) benzenesulfonamide] | 182 ± 23.4 | > 300 | > 300 | 155 ± 2.6 | > 300 | > 300 | 299 ± 32.3 | > 300 | – | 237 ± 26.8 | > 300 | – | – | – | – | – | – | – | – | – | –
COc1ccc(N=N[N]([Ag][O]C(C)=O)c2cccc(S(N)(=O)=O)c2)cc1OC [Compound L4-Ag] | – | – | – | – | – | – | – | – | 139 ± 28 µM | – | – | 237 ± 28.5 | 173 ± 10.3 | 241 ± 28.5 | > 300 | 5.5 ± 0.6 | 285 ± 30.5 | 139 ± 16.5 | 104 ± 10.3 | 137 ± 15.8 | –
COc1ccc([N+]2=N[N](c3cccc(S(N)(=O)=O)c3)[Cu-]2([O]C(C)=O)[O]C(C)=O)cc1OC [Compound L4-Cu] | – | – | – | – | – | – | – | – | 116 ± 9.2 µM | – | – | 160 ± 18 | 58.4 ± 5.8 | 199 ± 22.5 | 206 ± 25.1 | 197 ± 23.5 | 105 ± 13.5 | 125 ± 14.8 | 308 ± 34.2 | 297 ± 32.4 | –
Cc1cc(C)cc(NN=Nc2cccc(S(N)(=O)=O)c2)c1 [Compound L5, 3-(3-(3,5-dimethylphenyl)triaz-1-en-1-yl)benzenesulfonamide] | 97.8 ± 9.7 | 224 ± 12.4 | 112 ± 16.5 | 144 ± 18.6 | 103 ± 10.2 | > 300 | 131 ± 12.4 | 65.1 ± 4.5 | – | 177 ± 20.5 | 132 ± 13.1 | – | – | – | – | – | – | – | – | – | –
CC(=O)[O][Ag][N](N=Nc1cc(C)cc(C)c1)c1cccc(S(N)(=O)=O)c1 [Compound L5-Ag] | – | – | – | – | – | – | – | – | 9.61 µM and 9.6 µM | – | – | 100 ± 10.1 | 111 ± 9 | 162 ± 16.1 | 148 ± 19.5 | 30.5 ± 4.5 | 109 ± 11 | 111 ± 11 | 136 ± 13.5 | 112 ± 13.4 | –
CC(=O)[O][Cu-]1([O]C(C)=O)[N](c2cccc(S(N)(=O)=O)c2)N=[N+]1c1cc(C)cc(C)c1 [Compound L5-Cu] | – | – | – | – | – | – | – | – | 15.2 ± 1 µM | – | – | 32.4 ± 3.2 | 58.8 ± 3.9 | 84.4 ± 8.4 | 26 ± 2.5 | 36.3 ± 3.6 | 84.3 ± 8.4 | 46.4 ± 4.6 | 97.6 ± 9.7 | 79.2 ± 8.5 | –
